Patent US4341893A, “Quinazoline derivatives” (Synthelabo, priority 1976, dated 1982)

Key:
[1] = LD 50 rat (Table II); conditions: in vivo
[2] = system: spontaneously hypertensive male rats (Okamoto strain); assay: Anti-hypertensive effect in spontaneously hypertensive rats, systolic pressure; assay type: in vivo; conditions: 10 mg/kg perorally, spontaneously hypertensive rat
Procedure: Experiments were carried out on spontaneously hypertensive male rats (Okamoto strain), which were at least 14 weeks old. The systolic pressure was measured according to the technique described by Gerold and Tschirky (Arzneim.-Forsch. 1968, 18, 1285). The compounds were administered orally at a dose of 1 or 10 mg/kg.
Table II collects together the results obtained which are expressed in percent variation of the initial pressure, 2 hours, 4 hours and 24 hours after administration of the compound (I).

SMILES | LD50 ([1]; ip / intraperitoneally) [mg/kg] | % variation of the pressure after 2 hours [2] [%] | % variation of the pressure after 4 hours [2] [%] | % variation of the pressure after 24 hours [2] [%] | LD50 ([1]; po, perorally) [mg/kg]
COc1cc2nc(N3CCC(C(=O)c4cccs4)CC3)nc(N)c2cc1OC [Compound 6] | > 500 | -27 | -22 | -2 | –
COc1cc2nc(NCCCN(C)C(=O)c3ccccc3)nc(N)c2cc1OC [Compound 12, N1-(4-amino-6,7-dimethoxy-quinazolinyl-2)-N2-benzoyl-N2-methyl-propylenediamine] | ~400 | -31 | -23 | – | –
COc1cc2nc(N(C)CCCN(C)C(=O)c3ccccc3)nc(N)c2cc1OC [Compound 10, N1-(4-amino-6,7-dimethoxy-quinazolinyl-2)-N2-benzoyl-N1 N2-dimethyl-propylenediamine] | – | -23 | -15 | -4 | > 500
COc1cc2nc(N3CCC(C(=O)c4ccc5c(c4)OCO5)CC3)nc(N)c2cc1OC [Compound 1, 4-Amino-6,7-dimethoxy-2-[4-(3,4-methylenedioxybenzoyl)piperidino]-quinazoline] | > 500 | -30 | -32 | -37 | –
COc1cc2nc(N3CCC(C(=O)c4ccccc4)CC3)nc(N)c2cc1OC [Compound 2] | > 500 | -43 | -32 | -40 | –
COc1cc2nc(N3CCC(C(=O)c4nnc(SC)o4)CC3)nc(N)c2cc1OC [Compound 7, 4-amino-6,7-dimethoxy-2-[4-(5-methylthio-1,3,4-oxadiazole-2-carbonyl)-piperidino]-quinazoline] | – | -24 | -20 | -2 | > 500
COc1cccc(C(=O)C2CCN(c3nc(N)c4cc(OC)c(OC)cc4n3)CC2)c1 [Compound 3, 4-Amino-6,7-dimethoxy-2-[4-(3-methoxybenzoyl)-piperidino]-quinazoline] | ~500 | -32 | -23 | – | –
